Results as given in article PMC12091851, “Replacing a Cereblon Ligand by a DDB1 and CUL4 Associated Factor 11 (DCAF11) Recruiter Converts a Selective Histone Deacetylase 6 PROTAC into a Pan‐Degrader” (Chemmedchem, 2025).

Molecular target: HDAC1 (Homo sapiens, UniProt Q13547)
Assay: Immunoblot HDAC1 degradation in MM.1S cell lysates
Assay type: cell-based
Set-up: endogenous in cells; host or cells: MM.1S
Settings: MM1.S, MM.1S cells, 24 h, read-out: maximal degradation (Dmax) HDAC1
Protocol: Figure 6 Examination of HDAC isoform degradation. MM.1S cells were treated with the indicated compounds (10 μM) or vehicle (DMSO) for 24 h. HDAC1, 2, 4, and 6 levels were analyzed by immunoblotting. (A) Representative images from a total of n=3 biological replicates.
2.5. Aqueous Stability Assay
For stability testing in aqueous solution, a 10-fold concentrated DMSO solution of the respective compounds was diluted in DPBS to generate a 10 µM concentration (final DMSO content of 10%).
Samples of the aqueous solutions were taken after 0, 24, 48, and 72 h at room temperature and the amounts of the parental compound and potential fragments were monitored by HPLC gradient A (see 3.1 General Information). […]
Afterwards, proteins were transferred with the Trans -Blot Turbo Transfer System (Catalog# 1704150, Bio-Rad) to Immobilon-FL PVDF membranes (Catalog# IPFL00005, Mill ipore Merck, Burlington, MA, USA) at 1.0 A for 30 min and treated with 5% milk-powder solution for 1 h at room temperature under slight agitation. […] The ChemiDoc XRS+ System (Catalog# 1708265 , Bio-Rad) was used for detection and Image Lab Software 6.1 (Bio-Rad) for quantification. […]
In vitro inhibitory activities against HDAC1, 2 , and 6 were measured using a previously published protocol.[3] In vitro inhibitory activities against HDAC4 were measured using a previously published protocol with slight modifications. […]

Chain of HDAC1 (Q13547 whole entry): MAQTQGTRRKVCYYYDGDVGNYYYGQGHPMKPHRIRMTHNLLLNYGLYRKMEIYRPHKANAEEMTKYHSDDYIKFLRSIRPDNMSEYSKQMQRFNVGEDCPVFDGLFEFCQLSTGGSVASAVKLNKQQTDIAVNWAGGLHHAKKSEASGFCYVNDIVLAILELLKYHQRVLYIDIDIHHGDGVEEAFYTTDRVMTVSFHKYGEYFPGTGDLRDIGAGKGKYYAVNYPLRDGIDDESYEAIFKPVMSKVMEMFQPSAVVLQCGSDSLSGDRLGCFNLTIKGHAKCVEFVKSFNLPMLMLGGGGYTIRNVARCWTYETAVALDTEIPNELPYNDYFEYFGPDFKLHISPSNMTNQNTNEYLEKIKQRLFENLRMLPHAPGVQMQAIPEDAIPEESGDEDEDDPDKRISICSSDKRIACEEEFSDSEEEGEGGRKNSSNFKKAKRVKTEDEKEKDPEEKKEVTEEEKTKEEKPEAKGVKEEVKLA

| Compound | Dmax at 10 µM |
| --- | --- |
| O=C(CCCCCCNC(=O)c1ccc(N(C(=O)CCl)C(C(=O)NCc2ccccc2)c2ccc(Cl)c(Cl)c2)cc1)NO (centres unmarked) [Compound 2] | 74% |
| O=C(CCCCCCNC(=O)c1ccc(NC(=O)CCCCCCCCCCCN(C(=O)CCl)C(C(=O)NCc2ccccc2)c2ccc(Cl)c(Cl)c2)cc1)NO (centres unmarked) [Compound 1j] | 90% |
